Data: US5567734A, “Phenyl-substituted alkylcarboguanidides carrying perfluoroalkyl groups, a process for their preparation, their use as a medicament or a diagnostic agent, and a medicament containing them” (priority 1994, dated 1996)
Where a name gives a salt, the structure may show the parent alone.

Key:
[1] = target: T1, Na^+ /H^+ exchanger of rabbit erythrocytes (Oryctolagus cuniculus, UniProt P23791); assay: Inhibition of the Na^+ /H^+ exchanger of rabbit erythrocytes (Na^+ influx by flame photometry); assay type: cell-based, rabbit (New Zealand White); conditions: pH 7.4, 37° C., hyperosmolar salt/sucrose medium, cholesterol-fed rabbits, read-out: IC 50, Na^+ /H^+ -exchanger inhibition
T1 construct: endogenous in cells; host or cells: erythrocytes in heparinised blood of cholesterol-fed New Zealand White rabbits (Ivanovas)
T1 sequence (P23791 whole entry): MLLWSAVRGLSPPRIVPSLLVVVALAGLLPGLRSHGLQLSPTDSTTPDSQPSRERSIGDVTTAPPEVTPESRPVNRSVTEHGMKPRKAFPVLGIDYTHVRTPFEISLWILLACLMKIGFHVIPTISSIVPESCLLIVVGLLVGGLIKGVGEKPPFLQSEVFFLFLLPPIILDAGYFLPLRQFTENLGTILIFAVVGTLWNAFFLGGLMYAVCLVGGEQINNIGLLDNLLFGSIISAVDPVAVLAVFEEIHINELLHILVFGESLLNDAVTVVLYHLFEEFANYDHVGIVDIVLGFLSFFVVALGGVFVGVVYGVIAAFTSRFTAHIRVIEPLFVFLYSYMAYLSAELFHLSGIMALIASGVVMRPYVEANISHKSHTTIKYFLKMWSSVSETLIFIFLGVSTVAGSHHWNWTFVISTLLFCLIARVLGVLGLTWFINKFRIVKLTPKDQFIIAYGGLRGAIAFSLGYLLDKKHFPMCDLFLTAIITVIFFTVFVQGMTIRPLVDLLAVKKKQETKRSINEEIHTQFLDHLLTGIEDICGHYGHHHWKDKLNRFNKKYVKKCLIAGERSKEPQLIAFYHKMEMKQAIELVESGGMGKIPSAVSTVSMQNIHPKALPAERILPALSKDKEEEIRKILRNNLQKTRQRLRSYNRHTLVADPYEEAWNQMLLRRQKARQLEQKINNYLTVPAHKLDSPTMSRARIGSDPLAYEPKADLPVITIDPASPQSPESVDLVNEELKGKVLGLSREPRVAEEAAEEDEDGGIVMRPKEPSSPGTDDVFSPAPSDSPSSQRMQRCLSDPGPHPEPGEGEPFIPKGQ
Excerpt: Inhibition of the Na^+ /H^+ exchanger of rabbit erythrocytes:
New Zealand White rabbits (Ivanovas) were given a standard diet containing 2% cholesterol for 6 weeks in order to activate Na^+ /H^+ exchange and thus render it possible to determine the Na^+ influx into the erythrocytes via Na^+ /H^+ exchange by flame photometry. The blood was removed from the aural arteries and rendered incoagulable using 25 IU/ml potassium heparin. A portion of each sample was used for determining, in duplicate, the hematocrit by centrifugation. Aliquots of in each case 100 μl were used for measuring the initial content of Na^+ in the erythrocytes.
In order to determine the amiloride-sensitive sodium influx, 100 μl of each blood sample were incubated, at pH 7.4 and 37° C., in in each case 5 ml of a hyperosmolar salt/sucrose medium (mmol/l:140 NaCl, 3 KCl, 150 sucrose, 0.1 ouabain, 20 tris(hydroxymethyl)aminomethane). After that, the erythrocytes were washed three times with ice-cold MgCl2 /ouabain solution (mmol/l: 112 MgCl2, 0.1 ouabain), and haemolyzed in 2.0 ml of distilled water. The intracellular content of sodium was determined by flame photometry.
The net influx of Na^+ was calculated from the difference between the initial sodium values and the sodium content of the erythrocytes after incubation. The amiloride-inhibitable sodium influx was given by the difference in the sodium content of the erythrocytes after incubation with and without 3×10^-4 mol/l amiloride. The same procedure was employed for the compounds according to the invention.

rat hearts = conditions: isolated rat hearts; cited from earlier work
[2] = test system: disturbances of cardiac rhythm; conditions: literature; cited from earlier work

Compound | IC50 [1] | further results
NC(N)=NC(=O)CCc1cccc(C(F)(F)F)c1 [Example 1, 3-(3-Trifluoromethylphenyl)propionoguanidide] | 600 nM | –
N=C(N)NC(=O)c1nc(Cl)c(N)nc1N [amiloride] | – | suppression of artificially induced ventricular fibrillation (rat hearts): completely suppress; antiarrhythmic effect [2]: only weakly expressed; side effects when treating disturbances of cardiac rhythm [2]: hypotensive and saluretic effects
CCN(c1nc(N)c(C(=O)NC(=N)N)nc1Cl)C(C)C [ethylisopropyl amiloride, Ethylisopropyl amiloride] | – | potency relative to amiloride, ventricular fibrillation (rat hearts): even more potent than amiloride

Second part, led by results:

IC50 [1] | Compound | further results
50 nM | CC(Cc1cccc(C(F)(F)F)c1)C(=O)N=C(N)N (racemic) [Example 5, 2-Methyl-3-(3-trifluoromethylphenyl)propionoguanidide hydrochloride] | –
700 nM | NC(N)=NC(=O)CCc1cccc(OC(F)(F)F)c1 [Example 3, 3-(3-Trifluoromethoxyphenyl)propionoguanidide hydrochloride] | –
500 nM | NC(N)=NC(=O)CCc1ccccc1C(F)(F)F [Example 2, 3-(2-Trifluoromethylphenyl)propionoguanidide] | –
